The values that follow come from patent US6953808B2, “Method for treating gastric disorders using optically pure (−) pantoprazole” (Sepracor Inc., priority 1993, dated 2005).

For one data set, the target named is H^+,K^+-ATPase (Homo sapiens, UniProt P20648). As to conditions: cited from earlier work.
Data set [1] concerns mice. As to conditions: cited from earlier work.
Data set [2] relates to exogenously stimulated acid secretion. As to conditions: secretion induced by a variety of agonists; cited from earlier work.
Another data set concerns rats. As to conditions: two year; cited from earlier work.
Another data set concerns serum gastrin. As to conditions: humans, short-term administration; cited from earlier work.
The conditions of data set [3]: neutral and moderately acidic conditions; compared with omeprazole; cited from earlier work.
The subject of data set [4] is endogenous acid secretion. As to conditions: pylorus-ligated rats, cited from earlier work.
The test system of a further data set is rat. The note with it: cited from earlier work.
For data set [5], the system named is mice. The experiment in a line: Acute toxicity (LD50) in mice. The format is in vivo.
The next data set concerns duodenal ulcers. The note with it: patients with duodenal ulcers, after four weeks of 20 to 80 mg per day; cited from earlier work.
Data set [6] relates to hepatic drug metabolizing enzyme systems. The note with it: intact rats and rat microsomal enzyme preparations; compared to omeprazole; cited from earlier work.
In data set [7] the test system is endogenous acid secretion. The experiment in a line: Inhibition of endogenous acid secretion in pylorus-ligated rats. As to conditions: ratio of doses for 50% reduction. It counts as in vivo, rat. The text has this:
This may increase pantoprazole's selectivity for the acid secreting parietal cells, where low pH conditions exist in the intracellular canaliculi. In intact animals, pantoprazole is active in inhibiting gastric acid secretion in both rats and dogs. Specifically, the intravenous and oral doses required to reduce endogenous acid secretion in pylorus-ligated rats by 50% are in the 1-3 μmole/kg range. […] Racemic pantoprazole is also effective at doses less than 5 μmole/kg in inhibiting exogenously stimulated acid secretion induced by a variety of agonists, indicating general activity of the drug in inhibiting acid secretion.

The next data set deals with beta-adrenergic. As to conditions: cited from earlier work.

Sequence of H^+,K^+-ATPase (P20648 whole entry): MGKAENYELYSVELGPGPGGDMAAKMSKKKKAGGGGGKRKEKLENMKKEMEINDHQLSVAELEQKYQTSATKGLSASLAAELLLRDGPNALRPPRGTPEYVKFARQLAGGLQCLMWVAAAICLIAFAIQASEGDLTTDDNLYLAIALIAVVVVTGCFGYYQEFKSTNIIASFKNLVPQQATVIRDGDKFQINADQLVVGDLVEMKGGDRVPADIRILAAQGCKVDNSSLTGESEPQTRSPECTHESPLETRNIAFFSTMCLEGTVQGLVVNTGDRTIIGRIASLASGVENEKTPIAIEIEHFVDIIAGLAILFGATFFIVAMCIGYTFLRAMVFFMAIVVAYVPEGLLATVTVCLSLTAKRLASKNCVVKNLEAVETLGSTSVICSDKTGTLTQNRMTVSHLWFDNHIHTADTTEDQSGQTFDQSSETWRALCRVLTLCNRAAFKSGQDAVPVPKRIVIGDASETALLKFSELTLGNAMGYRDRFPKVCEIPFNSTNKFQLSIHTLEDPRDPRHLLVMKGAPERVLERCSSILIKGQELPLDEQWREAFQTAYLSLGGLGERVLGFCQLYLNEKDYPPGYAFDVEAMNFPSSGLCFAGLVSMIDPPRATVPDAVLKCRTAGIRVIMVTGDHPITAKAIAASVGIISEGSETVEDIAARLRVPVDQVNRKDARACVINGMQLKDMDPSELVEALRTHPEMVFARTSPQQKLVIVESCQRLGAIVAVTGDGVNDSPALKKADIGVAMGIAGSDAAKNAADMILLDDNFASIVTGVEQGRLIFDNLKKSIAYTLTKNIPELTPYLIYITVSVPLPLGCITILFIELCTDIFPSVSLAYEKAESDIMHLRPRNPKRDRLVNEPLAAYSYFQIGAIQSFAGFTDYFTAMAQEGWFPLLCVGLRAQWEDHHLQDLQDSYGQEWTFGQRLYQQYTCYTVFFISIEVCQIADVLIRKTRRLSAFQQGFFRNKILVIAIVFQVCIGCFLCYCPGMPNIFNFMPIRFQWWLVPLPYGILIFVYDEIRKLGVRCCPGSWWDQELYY
Sequence of H^+,K^+-ATPase (P51164 whole entry partner): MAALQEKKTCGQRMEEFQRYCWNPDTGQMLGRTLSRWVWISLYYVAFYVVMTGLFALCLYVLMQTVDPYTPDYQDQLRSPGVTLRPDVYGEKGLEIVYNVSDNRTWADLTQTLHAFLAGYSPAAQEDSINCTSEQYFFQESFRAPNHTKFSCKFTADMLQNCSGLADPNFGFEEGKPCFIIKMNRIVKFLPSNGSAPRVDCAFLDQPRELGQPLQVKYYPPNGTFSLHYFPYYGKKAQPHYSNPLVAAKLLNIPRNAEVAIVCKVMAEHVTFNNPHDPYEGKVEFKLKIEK

As to `COc1ccnc(C[S+]([O-])c2nc3cc(OC(F)F)ccc3[n-]2)c1OC.[Na+]` (racemic) [Racemic pantoprazole sodium], the “inhibition of H+,K+-ATPase” value on H^+,K^+-ATPase is listed as “potent, irreversible inhibitor”.
On to `COc1ccnc(C[S+]([O-])c2nc3ccc(OC(F)F)cc3[nH]2)c1OC` (racemic) [racemic pantoprazole], for which the “intravenous LD50” value in the data set with mice [1] was 975 µmol/kg; in the data set on rat (intravenous), 632 µmol/kg. The “effective dose inhibiting exogenously stimulated acid secretion” value in [2] is listed as “less than 5 μmole/kg”. In the data set on rats, the “finding in carcinogenicity study” value is “hepatocellular neoplasia”. Further, the “fasting serum gastrin levels” value with serum gastrin is “significantly elevated”. Also, the chemical stability result in [3] is “more chemically stable”. In [4] (intravenous), the “intravenous dose required to reduce endogenous acid secretion by 50%” value is 1 to 3 µmol/kg. Further, the “oral dose required to reduce endogenous acid secretion by 50%” value in data set [4] (oral) was 1 to 3 µmol/kg. Further, in the data set with rat (in vivo, po), the “oral LD50” value is > 2,467 μmol/kg. For the same compound, in the data set on mice [5], the “p.o./i.v. LD50 ratio” value was “approximately 2”. The ulcer healing in the data set with duodenal ulcers was 90-100%. Besides, in [6], the “inhibition of hepatic drug metabolizing enzyme systems” value was “weaker inhibitor”. The “calculated oral/intravenous (p.o./i.v.) ratio” value in [7] is “approximately 2”.
As to `CC(C)NC[C@H](O)COc1cccc2ccccc12` [L-form of propranolol, propranolol], in the data set on beta-adrenergic, the “potency relative to D-enantiomer” value is on record as 100 times.
